ChEMBL document CHEMBL4376829, “Discovery and biological evaluation of vinylsulfonamide derivatives as highly potent, covalent TEAD autopalmitoylation inhibitors” (Eur J Med Chem, 2019)
Active and inactive are the calls of the source. The calls are words filed in the database; no cut-off is given here.

Tests used:
[1] = target: Tyrosine-protein kinase JAK2 (Homo sapiens) (UniProt O60674); test: Inhibition of recombinant human JAK2 (808 to end residues) at 10 uM using KTFCGTPEYLAPEVRREPRILSEEEQEMFRDFDYIADWC as substrate measured after 40 mins in presence of [gamm33P]ATP by scintillation counting method relative to control
[2] = target: Rhodopsin kinase GRK1 (Homo sapiens) (UniProt Q15835); test: Inhibition of full length recombinant human GRK1 at 10 uM using KKKKERLLDDRHDSGLDSMKDEE as substrate after 40 mins in presence of [gamma33P]ATP by scintillation counting method relative to control
[3] = target: Protein arginine N-methyltransferase 1 (Homo sapiens) (UniProt Q99873); test: Inhibition of human PRMT1 at 10 uM after 1 hr by radioisotope-based assay relative to control
[4] = target: Serine/threonine-protein kinase D2 (Homo sapiens) (UniProt Q9BZL6); test: Inhibition of full-length recombinant human PKD2 at 10 uM using KKLNRTLSVA as substrate after 40 mins by in presence of [gamma33P]ATP by scintillation counting method relative to control
[5] = target: Histone acetyltransferase p300 (Homo sapiens) (UniProt Q09472); test: Displacement of [3H]-acetyl-CoA from human P300 after 60 mins by microbeta counting method
[6] = target: CDK3/Cyclin E (Homo sapiens) (UniProt P24864+Q00526); test: Inhibition of recombinant full-length human CDK3/cyclinE at 10 uM using histone H1 as substrate measured after 40 mins in presence of [gamma33P]ATP by scintillation counting method relative to control; type: protein-complex assay
[7] = target: Receptor-interacting serine/threonine-protein kinase 2 (Homo sapiens) (UniProt O43353); test: Inhibition of human RIPK2 (1 to 299 residues) at 10 uM using MBP as substrate measured after 120 mins in presence of [gamma33P]ATP by scintillation counting method relative to control
[8] = target: Protein kinase C alpha type (Homo sapiens) (UniProt P17252); test: Inhibition of full-length recombinant human PKCalpha at 10 uM using histone H1 as substrate after 40 mins by in presence of [gamma33P]ATP by scintillation counting method relative to control
[9] = target: Serine/threonine-protein kinase 3 (Homo sapiens) (UniProt Q13188); test: Inhibition of recombinant full-length human MST2 (2 to end residues) at 10 uM using myelin basic protein as substrate measured after 40 mins in presence of [gamma33P]ATP by scintillation counting method relative to control
Homo sapiens [10] = species on record: Homo sapiens; test: Inhibition of recombinant human EphB2 A848S/K918E mutant (560 to end residues) using poly (Glu, Tyr) 4:1 as substrate at 10 uM after 40 mins in presence of [gamma-33P]-ATP by scintillation counting relative to control
[11] = target: Tyrosine-protein kinase Fgr (Homo sapiens) (UniProt P09769); test: Inhibition of recombinant human FGR (2 to end residues) at 10 uM using poly(Glu, Tyr) 4:1 as substrate after 40 mins in presence of [gamma33P]ATP by scintillation counting method relative to control
[12] = target: Mitogen-activated protein kinase 14 (Homo sapiens) (UniProt Q16539); test: Inhibition of recombinant full-length human SAPK2a at 10 uM using myelin basic protein as substrate measured after 40 mins in presence of [gamma33P]ATP by scintillation counting method relative to control
[13] = target: Calcium/calmodulin-dependent protein kinase type 1 (Homo sapiens) (UniProt Q14012); test: Inhibition of recombinant full length human CAMK1 (2 to end residues) at 10 uM using […] as substrate incubated for 40 mins in presence of [gamma-33P]-ATP by scintillation counting method relative to control
[14] = target: Ribosomal protein S6 kinase alpha-4 (Homo sapiens) (UniProt O75676); test: Inhibition of recombinant human MSK2 (2 to end residues) at 10 uM using GRPRTSSFAEGKK as substrate measured after 40 mins in presence of [gamma33P]ATP by scintillation counting method relative to control
[15] = target: Transcriptional enhancer factor TEF-3 (Homo sapiens, UniProt Q15561); test: Binding affinity to TEAD4 in human HCT116 cells assessed as increase in soluble form of TEAD4 level at 50 uM preincubated for 4 hrs followed by heating at 51.6 to 64.4 degC for 3 mins by immunoblot-based […]; type: cell-based
Homo sapiens [16] = species on record: Homo sapiens; test: Inhibition of full length recombinant human PRAK R291E mutant at 10 uM using KKLRRTLSVA as substrate after 40 mins in presence of [gamma33P]ATP by scintillation counting method relative to control
[17] = target: 5'-AMP-activated protein kinase catalytic subunit alpha-1 (Homo sapiens) (UniProt Q13131); test: Inhibition of recombinant full length human AMPKalpha1 at 10 uM using AMARAASAAALARRR as substrate after 40 mins in presence of [gamma33P]ATP by scintillation counting method relative to control
[18] = target: Serine/threonine-protein kinase Nek1 (Homo sapiens) (UniProt Q96PY6); test: Inhibition of recombinant human NEK1 (1 to 505 residues) at 10 uM using RLGRDKYKTLRQIRQ as substrate measured after 40 mins in presence of [gamma33P]ATP by scintillation counting method relative to control
[19] = target: LIM domain kinase 1 (Homo sapiens) (UniProt P53667); test: Inhibition of recombinant human LIMK1 (285 to 638 residues) at 10 uM using cofilin as substrate measured after 40 mins in presence of [gamm33P]ATP by scintillation counting method relative to control
[20] = target: Platelet-derived growth factor receptor beta (Homo sapiens) (UniProt P09619); test: Inhibition of recombinant human PDGFRbeta (557 to end residues) at 10 uM using poly(Glu, Tyr) 4:1 as substrate measured after 40 mins in presence of [gamma33P]ATP by scintillation counting method relative to control
[21] = target: Phosphorylase b kinase gamma catalytic chain, skeletal muscle/heart isoform (Homo sapiens) (UniProt Q16816); test: Inhibition of full-length recombinant human PHKgamma1 at 10 uM using KKLNRTLSFAEPG as substrate after 120 mins by in presence of [gamma33P]ATP by scintillation counting method relative to control
[22] = target: CREB-binding protein (Homo sapiens) (UniProt Q92793); test: Inhibition of human CBP-BRD at 10 uM relative to control
Homo sapiens [23] = species on record: Homo sapiens; test: Inhibition of recombinant human Plk4 S34T mutant (1 to 273 residues) at 10 uM using casein as substrate measured after 120 mins in presence of [gamma33P]ATP by scintillation counting method relative to control
[24] = system: Ribosomal protein S6 kinase beta-1 (Homo sapiens), P23443 [T412E]; test: Inhibition of recombinant human p70S6K T412E mutant (1 to 421 residues) at 10 uM using KKRNRTLTV as substrate measured after 40 mins in presence of [gamma33P]ATP by scintillation counting method relative to control

Sequence of Serine/threonine-protein kinase 3 (Homo sapiens) (Q13188 whole entry): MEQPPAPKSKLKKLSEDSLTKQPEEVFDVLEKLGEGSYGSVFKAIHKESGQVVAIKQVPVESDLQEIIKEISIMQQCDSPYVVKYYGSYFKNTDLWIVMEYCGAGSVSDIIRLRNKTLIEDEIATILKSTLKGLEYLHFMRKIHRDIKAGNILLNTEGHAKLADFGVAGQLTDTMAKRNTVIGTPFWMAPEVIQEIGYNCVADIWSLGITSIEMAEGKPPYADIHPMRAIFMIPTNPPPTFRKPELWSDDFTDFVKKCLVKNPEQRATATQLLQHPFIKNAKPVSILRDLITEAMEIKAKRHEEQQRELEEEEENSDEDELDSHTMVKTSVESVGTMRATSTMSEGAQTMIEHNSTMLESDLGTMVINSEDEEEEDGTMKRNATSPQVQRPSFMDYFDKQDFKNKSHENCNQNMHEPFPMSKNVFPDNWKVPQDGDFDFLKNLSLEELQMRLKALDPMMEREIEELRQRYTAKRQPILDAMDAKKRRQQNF
Sequence of Rhodopsin kinase GRK1 (Homo sapiens) (Q15835 whole entry): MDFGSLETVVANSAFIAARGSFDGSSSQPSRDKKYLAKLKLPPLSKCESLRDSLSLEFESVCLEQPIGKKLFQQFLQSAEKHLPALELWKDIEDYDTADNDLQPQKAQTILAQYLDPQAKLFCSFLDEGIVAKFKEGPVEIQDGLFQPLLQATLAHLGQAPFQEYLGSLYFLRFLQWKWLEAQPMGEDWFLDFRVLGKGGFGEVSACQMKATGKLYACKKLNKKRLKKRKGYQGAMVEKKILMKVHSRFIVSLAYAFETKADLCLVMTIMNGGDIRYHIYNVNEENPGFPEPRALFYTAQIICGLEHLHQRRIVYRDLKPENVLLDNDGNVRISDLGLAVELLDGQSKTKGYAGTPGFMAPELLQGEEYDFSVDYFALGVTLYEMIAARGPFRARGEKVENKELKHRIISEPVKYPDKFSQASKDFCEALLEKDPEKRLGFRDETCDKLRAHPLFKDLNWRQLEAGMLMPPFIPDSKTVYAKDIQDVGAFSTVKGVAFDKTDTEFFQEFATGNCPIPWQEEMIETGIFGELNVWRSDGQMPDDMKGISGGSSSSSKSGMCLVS
Sequence of 5'-AMP-activated protein kinase catalytic subunit alpha-1 (Homo sapiens) (Q13131 whole entry, looked up, the tested form may be a part): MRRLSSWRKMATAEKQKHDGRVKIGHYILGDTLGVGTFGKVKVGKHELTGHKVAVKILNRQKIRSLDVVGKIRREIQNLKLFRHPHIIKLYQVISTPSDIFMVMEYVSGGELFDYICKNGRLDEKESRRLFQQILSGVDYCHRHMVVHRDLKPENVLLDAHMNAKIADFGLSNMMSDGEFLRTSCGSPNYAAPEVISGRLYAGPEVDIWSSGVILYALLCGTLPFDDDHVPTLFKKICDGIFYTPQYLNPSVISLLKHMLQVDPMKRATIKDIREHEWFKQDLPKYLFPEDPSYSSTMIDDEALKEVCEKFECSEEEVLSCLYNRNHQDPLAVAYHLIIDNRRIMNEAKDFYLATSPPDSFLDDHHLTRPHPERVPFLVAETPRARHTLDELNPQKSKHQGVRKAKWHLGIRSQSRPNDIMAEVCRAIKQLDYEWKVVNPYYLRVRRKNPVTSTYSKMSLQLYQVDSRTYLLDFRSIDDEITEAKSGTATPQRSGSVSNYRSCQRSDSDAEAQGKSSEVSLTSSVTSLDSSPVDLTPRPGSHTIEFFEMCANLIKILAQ
Sequence of Transcriptional enhancer factor TEF-3 (Q15561 whole entry): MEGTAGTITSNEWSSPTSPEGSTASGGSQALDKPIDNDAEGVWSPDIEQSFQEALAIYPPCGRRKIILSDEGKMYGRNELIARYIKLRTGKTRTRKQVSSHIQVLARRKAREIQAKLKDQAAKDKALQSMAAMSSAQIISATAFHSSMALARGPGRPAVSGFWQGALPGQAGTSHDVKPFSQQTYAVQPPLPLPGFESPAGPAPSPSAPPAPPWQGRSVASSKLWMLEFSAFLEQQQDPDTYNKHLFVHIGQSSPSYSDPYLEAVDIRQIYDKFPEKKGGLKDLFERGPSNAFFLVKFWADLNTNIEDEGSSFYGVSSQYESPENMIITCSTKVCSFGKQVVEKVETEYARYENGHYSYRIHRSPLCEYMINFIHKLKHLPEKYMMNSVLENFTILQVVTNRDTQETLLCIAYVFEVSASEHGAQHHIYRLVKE
Sequence of LIM domain kinase 1 (Homo sapiens) (P53667 whole entry, looked up, the tested form may be a part): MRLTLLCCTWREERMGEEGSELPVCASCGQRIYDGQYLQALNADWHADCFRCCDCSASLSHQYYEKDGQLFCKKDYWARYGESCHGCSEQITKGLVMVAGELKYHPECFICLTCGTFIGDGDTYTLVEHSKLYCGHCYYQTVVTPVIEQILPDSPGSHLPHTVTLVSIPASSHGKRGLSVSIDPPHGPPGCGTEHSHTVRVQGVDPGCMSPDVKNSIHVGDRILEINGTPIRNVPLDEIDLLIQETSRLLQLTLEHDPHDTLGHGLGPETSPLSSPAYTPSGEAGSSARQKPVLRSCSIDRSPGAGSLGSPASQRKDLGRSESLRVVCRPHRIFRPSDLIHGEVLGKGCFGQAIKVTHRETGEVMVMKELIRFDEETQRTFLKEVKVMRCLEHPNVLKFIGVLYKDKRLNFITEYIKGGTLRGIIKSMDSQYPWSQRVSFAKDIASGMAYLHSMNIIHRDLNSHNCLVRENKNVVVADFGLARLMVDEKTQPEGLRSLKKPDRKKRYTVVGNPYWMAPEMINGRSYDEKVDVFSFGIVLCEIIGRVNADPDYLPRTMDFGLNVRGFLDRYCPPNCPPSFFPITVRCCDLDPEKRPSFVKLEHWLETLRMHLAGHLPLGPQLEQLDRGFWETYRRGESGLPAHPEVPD
Sequence of Platelet-derived growth factor receptor beta (Homo sapiens) (P09619 whole entry, canonical isoform): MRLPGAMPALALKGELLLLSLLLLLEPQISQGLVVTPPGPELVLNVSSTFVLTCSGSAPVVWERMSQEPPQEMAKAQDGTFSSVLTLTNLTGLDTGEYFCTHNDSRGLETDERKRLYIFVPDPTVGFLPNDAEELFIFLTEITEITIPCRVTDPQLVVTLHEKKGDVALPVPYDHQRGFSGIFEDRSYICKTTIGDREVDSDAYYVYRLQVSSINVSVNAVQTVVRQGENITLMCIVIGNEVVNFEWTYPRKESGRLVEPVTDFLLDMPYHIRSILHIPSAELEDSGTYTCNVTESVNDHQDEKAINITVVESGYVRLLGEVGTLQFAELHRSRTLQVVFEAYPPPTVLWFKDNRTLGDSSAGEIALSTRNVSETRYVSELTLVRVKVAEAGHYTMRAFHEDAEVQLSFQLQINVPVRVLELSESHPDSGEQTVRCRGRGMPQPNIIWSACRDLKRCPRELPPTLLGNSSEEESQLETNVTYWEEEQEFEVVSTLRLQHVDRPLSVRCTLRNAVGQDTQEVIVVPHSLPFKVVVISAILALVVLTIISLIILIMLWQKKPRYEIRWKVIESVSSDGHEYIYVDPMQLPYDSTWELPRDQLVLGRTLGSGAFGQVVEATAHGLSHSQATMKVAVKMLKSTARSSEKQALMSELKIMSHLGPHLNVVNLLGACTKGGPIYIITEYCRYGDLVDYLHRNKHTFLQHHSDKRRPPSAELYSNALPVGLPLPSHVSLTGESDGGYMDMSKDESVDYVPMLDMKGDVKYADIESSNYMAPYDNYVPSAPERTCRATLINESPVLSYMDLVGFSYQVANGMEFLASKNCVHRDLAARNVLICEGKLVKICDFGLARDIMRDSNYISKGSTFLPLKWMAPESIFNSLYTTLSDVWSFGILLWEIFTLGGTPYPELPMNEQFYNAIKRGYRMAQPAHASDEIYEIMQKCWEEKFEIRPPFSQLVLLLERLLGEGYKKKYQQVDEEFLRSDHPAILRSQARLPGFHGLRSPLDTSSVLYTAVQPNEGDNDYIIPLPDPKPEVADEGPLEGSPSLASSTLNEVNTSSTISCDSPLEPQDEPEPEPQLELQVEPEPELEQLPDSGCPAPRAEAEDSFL
Sequence of Serine/threonine-protein kinase D2 (Homo sapiens) (Q9BZL6 whole entry): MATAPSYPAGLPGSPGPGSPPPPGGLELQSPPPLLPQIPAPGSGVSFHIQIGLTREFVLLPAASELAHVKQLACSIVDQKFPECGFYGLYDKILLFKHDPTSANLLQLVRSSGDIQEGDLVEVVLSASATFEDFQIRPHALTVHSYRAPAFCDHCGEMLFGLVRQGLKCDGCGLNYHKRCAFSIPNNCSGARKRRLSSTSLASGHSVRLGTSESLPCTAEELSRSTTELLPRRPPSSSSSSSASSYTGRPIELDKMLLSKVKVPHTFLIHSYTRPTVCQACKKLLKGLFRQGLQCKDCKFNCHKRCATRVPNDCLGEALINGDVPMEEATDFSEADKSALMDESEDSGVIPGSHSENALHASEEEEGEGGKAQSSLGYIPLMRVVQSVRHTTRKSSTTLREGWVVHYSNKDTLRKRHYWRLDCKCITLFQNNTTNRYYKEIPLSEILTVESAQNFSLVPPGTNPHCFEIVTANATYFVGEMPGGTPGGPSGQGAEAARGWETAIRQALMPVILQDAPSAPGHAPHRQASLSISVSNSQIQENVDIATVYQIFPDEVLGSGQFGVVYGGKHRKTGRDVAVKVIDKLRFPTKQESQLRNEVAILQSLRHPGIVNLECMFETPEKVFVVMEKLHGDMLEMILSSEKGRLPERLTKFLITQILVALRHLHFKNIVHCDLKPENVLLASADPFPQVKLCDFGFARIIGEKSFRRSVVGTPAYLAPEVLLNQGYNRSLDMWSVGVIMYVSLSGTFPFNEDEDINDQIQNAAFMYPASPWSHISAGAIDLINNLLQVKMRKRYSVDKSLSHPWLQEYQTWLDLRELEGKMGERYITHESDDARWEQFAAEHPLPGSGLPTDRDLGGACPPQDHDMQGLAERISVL
Sequence of Protein arginine N-methyltransferase 1 (Homo sapiens) (Q99873 whole entry, looked up): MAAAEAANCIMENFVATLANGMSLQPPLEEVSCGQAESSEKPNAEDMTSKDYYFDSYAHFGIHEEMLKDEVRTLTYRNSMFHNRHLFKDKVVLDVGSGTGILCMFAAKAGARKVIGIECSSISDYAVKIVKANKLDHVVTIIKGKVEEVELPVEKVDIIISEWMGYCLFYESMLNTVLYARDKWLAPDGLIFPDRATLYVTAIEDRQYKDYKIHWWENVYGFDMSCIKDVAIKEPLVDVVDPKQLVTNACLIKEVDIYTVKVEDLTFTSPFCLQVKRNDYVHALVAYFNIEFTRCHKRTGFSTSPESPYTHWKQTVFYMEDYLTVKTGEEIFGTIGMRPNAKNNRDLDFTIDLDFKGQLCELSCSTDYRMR

Q: For `C=CS(=O)(=O)Nc1ccc(Cc2ccc3ccccc3c2)cc1`, which inhibition [1] is on record?
A: The inhibition was 6%.

Q: What about the inhibition [2] of the same molecule?
A: Its inhibition is 7%.

Q: And the inhibition [3]?
A: The inhibition was 3%.

Q: What about the inhibition [4] of the same molecule?
A: Its inhibition is -4%.

Q: And the inhibition [5]?
A: Its inhibition is -3%.

Q: And the inhibition [6]?
A: Its inhibition is 7%.

Q: And the inhibition [7]?
A: The inhibition was 6%.

Q: What about the inhibition [8] of the same molecule?
A: The inhibition was 3%.

Q: What about the inhibition [9] of the same molecule?
A: The inhibition was 2%.

Q: What about the inhibition (Homo sapiens [10]) of the same molecule?
A: The inhibition was 4%.

Q: And the inhibition [11]?
A: The inhibition was 15%.

Q: And the inhibition [12]?
A: Its inhibition is 10%.

Q: And the inhibition [13]?
A: Its inhibition is 6%.

Q: And the inhibition [14]?
A: Its inhibition is 12%.

Q: What about the Activity [15] of the same molecule?
A: Its Activity is “Active”.

Q: What about the inhibition (Homo sapiens [16]) of the same molecule?
A: Its inhibition is 2%.

Q: What about the inhibition [17] of the same molecule?
A: The inhibition was 2%.

Q: And the inhibition [18]?
A: The inhibition was -6%.

Q: And the inhibition [19]?
A: The inhibition was -1%.

Q: What about the inhibition [20] of the same molecule?
A: The inhibition was 3%.

Q: And the inhibition [21]?
A: Its inhibition is -3%.

Q: And the inhibition [22]?
A: The inhibition was 10%.

Q: And the inhibition (Homo sapiens [23])?
A: Its inhibition is -2%.

Q: And the inhibition [24]?
A: Its inhibition is 9%.
